One series concerns the target T1, Bile salt export pump (Rattus norvegicus, UniProt O70127).
T1 sequence (O70127 whole entry): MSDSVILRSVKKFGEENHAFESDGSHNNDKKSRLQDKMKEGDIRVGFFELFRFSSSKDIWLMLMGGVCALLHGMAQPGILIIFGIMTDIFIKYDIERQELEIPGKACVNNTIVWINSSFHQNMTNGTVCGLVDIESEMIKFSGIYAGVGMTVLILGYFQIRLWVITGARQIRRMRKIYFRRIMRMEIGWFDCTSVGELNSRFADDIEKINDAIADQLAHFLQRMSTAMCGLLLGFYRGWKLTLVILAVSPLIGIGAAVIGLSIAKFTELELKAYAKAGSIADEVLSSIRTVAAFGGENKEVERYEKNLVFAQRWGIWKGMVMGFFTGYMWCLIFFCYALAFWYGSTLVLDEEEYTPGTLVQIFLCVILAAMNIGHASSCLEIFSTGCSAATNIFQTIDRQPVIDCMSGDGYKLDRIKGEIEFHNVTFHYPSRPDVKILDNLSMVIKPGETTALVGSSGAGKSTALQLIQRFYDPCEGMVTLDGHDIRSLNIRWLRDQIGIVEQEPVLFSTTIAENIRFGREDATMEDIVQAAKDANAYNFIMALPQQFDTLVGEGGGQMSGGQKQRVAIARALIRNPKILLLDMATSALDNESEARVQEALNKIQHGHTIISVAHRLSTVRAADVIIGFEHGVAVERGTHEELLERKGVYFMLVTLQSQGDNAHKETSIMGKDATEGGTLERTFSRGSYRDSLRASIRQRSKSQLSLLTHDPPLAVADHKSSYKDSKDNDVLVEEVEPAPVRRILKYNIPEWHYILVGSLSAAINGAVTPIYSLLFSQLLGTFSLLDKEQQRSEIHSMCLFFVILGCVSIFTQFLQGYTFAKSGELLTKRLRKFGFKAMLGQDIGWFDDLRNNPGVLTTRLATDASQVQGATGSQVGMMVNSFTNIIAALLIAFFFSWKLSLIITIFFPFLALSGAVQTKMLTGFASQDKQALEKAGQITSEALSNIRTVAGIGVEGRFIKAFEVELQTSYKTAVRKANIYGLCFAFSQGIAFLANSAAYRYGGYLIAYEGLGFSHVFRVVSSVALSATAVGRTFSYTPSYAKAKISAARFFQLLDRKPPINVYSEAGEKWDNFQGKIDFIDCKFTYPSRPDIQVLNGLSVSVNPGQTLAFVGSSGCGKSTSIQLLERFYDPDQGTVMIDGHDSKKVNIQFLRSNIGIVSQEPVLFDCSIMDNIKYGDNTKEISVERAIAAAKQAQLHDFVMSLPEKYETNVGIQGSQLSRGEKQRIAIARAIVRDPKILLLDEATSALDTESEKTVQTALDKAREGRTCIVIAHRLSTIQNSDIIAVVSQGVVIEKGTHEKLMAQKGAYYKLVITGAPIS
In words: TP_TRANSPORTER: Western in vivo SD rat, liver. It counts as functional, organism-based, Sprague-Dawley.

Series [1] concerns the target T2, Hepatic sodium/bile acid cotransporter (Rattus norvegicus, UniProt P26435).
T2 sequence (P26435 whole entry): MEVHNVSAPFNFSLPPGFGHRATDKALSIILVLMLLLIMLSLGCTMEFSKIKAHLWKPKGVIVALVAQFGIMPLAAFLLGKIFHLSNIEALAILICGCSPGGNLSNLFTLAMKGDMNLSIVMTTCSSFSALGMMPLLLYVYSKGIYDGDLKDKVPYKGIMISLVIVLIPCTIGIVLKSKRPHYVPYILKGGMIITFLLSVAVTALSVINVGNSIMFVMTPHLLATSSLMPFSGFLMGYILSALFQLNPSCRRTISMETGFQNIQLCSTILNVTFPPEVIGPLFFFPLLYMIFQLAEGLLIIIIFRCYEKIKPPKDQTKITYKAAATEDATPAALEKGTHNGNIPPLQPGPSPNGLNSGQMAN
In words: TP_TRANSPORTER: Northern blot in vivo SD rat, liver. Format: functional, organism-based, Sprague-Dawley.

With `C#C[C@]1(O)CC[C@H]2[C@@H]3CCc4cc(O)ccc4[C@H]3CC[C@@]21C` [ETHINYL ESTRADIOL], the Activity entry (at Bile salt export pump; in series [1]) was “inducer [Decrease]” throughout.

The values are drawn from ChEMBL document CHEMBL2074387, “Expression of the bile salt export pump is maintained after chronic cholestasis in the rat” (Gastroenterology, 2000).
